Assay results published in the PolyMetriX glass transition set.
± gives the standard deviation of the reports.

Row | Structure (SMILES) | glass transition temperature
1 | *c1ccc(Oc2ccc(-c3ccc(Oc4ccc(N5C(=O)c6ccc(Oc7cccc(Oc8ccc9c(c8)C(=O)N(*)C9=O)c7)cc6C5=O)cc4)cc3)cc2)cc1 (repeat unit) | 200.00 °C
2 | *CC(*)c1ccc(C(=O)c2ccc(OC)cc2)cc1 (repeat unit) | 103.00 °C
3 | *Oc1ccc(OC(=O)c2ccc(OCCCCCCCCCCOc3ccc(C(*)=O)cc3)cc2)cc1S(=O)(=O)c1ccccc1 (repeat unit) | 88.00 °C
4 | *c1ccc(CC(=O)Nc2ccc(NC(=O)Cc3ccc(-c4sc(*)c(-c5ccccc5)c4-c4ccccc4)cc3)cc2)cc1 (repeat unit) | 251.00 °C
5 | *C(F)(F)C(*)(F)OC(F)C(F)F (repeat unit) | 35.00 °C
6 | *C(=O)OCCCCCCCCCCCCCCCCCCCCCCOC(=O)c1ccc(N2C(=O)c3ccc(*)cc3C2=O)cc1 (repeat unit) | 44.00 °C
7 | *C(=O)Oc1ccc(C(C)(C)c2ccc(OC(=O)c3ccc4c(c3)C(=O)N(c3ccc(-c5ccc(N6C(=O)c7ccc(*)cc7C6=O)cc5C)c(C)c3)C4=O)cc2)cc1 (repeat unit) | 166.00 °C
8 | *Oc1ccc(C2(c3ccc(Oc4ccc5c(=O)n6c7cc(Oc8ccc9c(c8)nc8c%10ccc(*)c%11cccc(c(=O)n98)c%11%10)ccc7nc6c6cccc4c56)cc3)c3ccccc3-c3ccccc32)cc1 (repeat unit) | 396.00 °C
9 | *c1ccc(Oc2ccc(Oc3ccc(-n4c(=O)c5cc6c(=O)n(*)c(=O)c6cc5c4=O)cc3)cc2C(C)(C)C)cc1 (repeat unit) | 314.00 °C
10 | *c1ccc2c(c1)C(=O)N(c1ccc(-c3cc(-c4ccc(OCCCC#N)cc4)cc(-c4ccc(N5C(=O)c6ccc(C(*)(C(F)(F)F)C(F)(F)F)cc6C5=O)cc4)n3)cc1)C2=O (repeat unit) | 339.00 °C
11 | *Oc1ccc(CC(NC(=O)CCc2ccc(OC(=O)CCCCCCCCC(*)=O)cc2)C(=O)OCC)cc1 (repeat unit) | 44.00 °C
12 | *CC(O)COc1ccc(C(C)(c2ccccc2)c2ccc(O*)cc2)cc1 (repeat unit) | 115.00 °C
13 | *c1ccc(Sc2ccc(Sc3ccc(Sc4ccc(N5C(=O)c6ccc(Sc7ccc(Sc8ccc(Sc9ccc%10c(c9)C(=O)N(*)C%10=O)cc8)cc7)cc6C5=O)cc4)cc3)cc2)cc1 (repeat unit) | 176.5 °C
14 | *CC(*)c1ccc(CCCCCCCC)cc1 (repeat unit) | -45.00 °C
15 | *Oc1ccc(Oc2ccc(/C=N/c3ccc(Oc4ccc(/N=C/c5ccc(*)cc5)cc4)cc3)cc2)cc1 (repeat unit) | 120.00 °C
16 | *Cc1ccccc1CN(CC)c1ccc(/C=C/c2ccc(/C=C(\C#N)C(=O)NC3CCCCC3NC(=O)/C(C#N)=C/c3ccc(/C=C/c4ccc(N(*)CC)cc4)cc3)cc2)cc1 (repeat unit) | 201.00 °C
17 | *CC(*)c1ccc(CCCC)cc1 (repeat unit) [Poly(p-n-butyl styrene) ] | 6 ± 0.6 °C
18 | *Oc1ccc(C(=O)OCCOC(=O)c2ccc(*)cc2)cc1 (repeat unit) | 74.00 °C
19 | *Oc1ccc(CC(NC(=O)CCc2ccc(OC(=O)CCCCCCCCC(*)=O)cc2)C(=O)OCCCCCCCCCCCC)cc1 (repeat unit) | 12.50 °C
20 | *C(=O)c1ccc2c(c1)C(=O)N(c1cccc(N3C(=O)c4ccc(*)cc4C3=O)c1)C2=O (repeat unit) | 300.00 ± 9 °C
21 | *c1ccc(CC(=O)Nc2ccc(S(=O)(=O)c3ccc(NC(=O)Cc4ccc(-c5sc(*)c(-c6ccccc6)c5-c5ccccc5)cc4)cc3)cc2)cc1 (repeat unit) | 252.00 °C
22 | *CCCCCCCCCCCC(=O)Oc1ccc(-c2ccc(OC(=O)c3ccc4c(c3)C(=O)N(*)C4=O)cc2)cc1 (repeat unit) | 60.00 °C
23 | *OCC(F)(F)C(F)(F)C(F)(F)COc1nc(F)c(F)c(OCC(F)(F)C(F)(F)C(F)(F)COc2c(F)c(*)nc(F)c2F)c1F (repeat unit) | -10.00 °C

Row | Structure (SMILES) | glass transition temperature
24 | *CCOC(=O)CC(C)O* (repeat unit) | -37.10 °C
25 | *c1cccc(OCCCCCCCCCOc2cccc(N3C(=O)c4ccc(-c5ccc6c(c5)C(=O)N(*)C6=O)cc4C3=O)c2)c1 (repeat unit) | 132.00 °C
26 | *CC(*)(C)C(=O)OC(C)C (repeat unit) [Poly(isopropyl methacrylate)] | 83.92 ± 1.5 °C
27 | *CC(CS(=O)(=O)CC)O* (repeat unit) | 57.00 °C
28 | *C(=O)Nc1ccc(Oc2ccccc2-c2ccccc2Oc2ccc(NC(=O)c3ccc4c(c3)C(=O)N(c3ccc(Oc5ccc(C(C)(C)c6ccc(Oc7ccc(N8C(=O)c9ccc(*)cc9C8=O)cc7)cc6)cc5)cc3)C4=O)cc2)cc1 (repeat unit) | 229.00 °C
29 | *OC(C)CCOC(=O)C(CCCCCCOc1ccc(/N=C/c2ccc([N+](=O)[O-])cc2)cc1)C(*)=O (repeat unit) | 3.00 °C
30 | *CCOCCOC(=O)C(C)C(=O)O* (repeat unit) | -29.00 °C
31 | *CCCCOC(=O)CCSCCCCCCSCCC(=O)O* (repeat unit) | -73.00 °C
32 | */C(CCCCCC)=C(/*)c1ccccc1 (repeat unit) | 200.00 °C
33 | *C(=O)c1ccc2c(c1)C(=O)N(c1ccc(-c3ccccc3N3C(=O)c4ccc(*)cc4C3=O)cc1)C2=O (repeat unit) | 305.00 °C
34 | *OC(=O)OCCCCCCCCCCOC(=O)OC1COC2C(*)COC12 (repeat unit) | 6.50 °C
35 | *c1ccc(Oc2ccc(C(=O)c3ccc(Oc4ccc(C5(*)c6ccccc6C(=O)N5C)cc4)cc3)cc2)cc1 (repeat unit) | 245.00 °C
36 | *Oc1ccc(C2(c3ccc(OC(*)=S)cc3)CCC(C)CC2)cc1 (repeat unit) | 168.00 °C
37 | *CCCCCCCCCCN1C(=O)c2ccc(Oc3ccc4c(c3)C(=O)N(*)C4=O)cc2C1=O (repeat unit) | 91.50 °C
38 | *CCCCCOC(=O)c1ccccc1C(=O)[O][Cd][O]C(=O)c1ccccc1C(=O)OCCCCCOC(=O)NCCCCCCNC(=O)O* (repeat unit) | -6.80 °C
39 | *CC(*)C(=O)c1ccc(Cl)cc1 (repeat unit) | 63.00 °C
40 | *O[Si](C)(CCC(F)(F)F)O[Si](C)(CCC(F)(F)F)O[Si](C)(CCC(F)(F)F)CCC(F)(F)C(F)(F)C(F)(F)C(F)(F)C(F)(F)C(F)(F)CC[Si](*)(C)CCC(F)(F)F (repeat unit) | -43.00 °C
41 | *CC(*)C(=O)OCCCOc1ccc(/N=N/c2ccc([N+](=O)[O-])cc2)cc1 (repeat unit) | 45.60 °C
42 | *CCCCCCNC(=O)CCCCCCCCCCCCCCCCC(=O)N* (repeat unit) | 47.00 °C
43 | *CC(*)(C)C(=O)OCCCOc1ccc2cc(C(=O)Oc3ccccc3)ccc2c1 (repeat unit) | 84.00 °C
44 | *c1cccc(C(=O)Nc2ccc(Oc3ccc(C(C)(C)c4ccc(Oc5ccc(NC(=O)c6cccc(N7C(=O)c8ccc(-c9ccc%10c(c9)C(=O)N(*)C%10=O)cc8C7=O)c6)cc5)cc4)cc3)cc2)c1 (repeat unit) | 257.00 °C
45 | *c1ccc(Oc2ccc(NC(=O)c3cc(C(=O)Nc4ccc(Oc5ccc(-c6nnc(*)o6)cc5)cc4)cc(N4C(=O)c5ccccc5C4=O)c3)cc2)cc1 (repeat unit) | 285.00 °C
